Tests used:
[1] = test system: a variety of organisms; assay: in vivo antibacterial activity (general statement); conditions: in words
[2] = test system: Proteus mirabilis ATCC 4671; assay: in vitro MIC, standard agar dilution procedure; format: cell-based
[3] = test system: Shigella shiga; assay: microbe, parasite or virus in culture; format: cell-based; conditions: Shigella shiga; agar dilution
[4] = test system: Pseudomonas aeruginosa ATCC 10145; assay: in vitro MIC, standard agar dilution procedure; format: cell-based
[5] = test system: Staphylococcus aureus Smith ATCC 13709; assay: in vitro MIC, standard agar dilution procedure; format: cell-based
[6] = test system: Escherichia coli US311; assay: control of systemic lethal infection in mice, single subcutaneous dose; format: in vivo, mice (Carworth Farms CF-1)
Method: (§1) These new substances show high in vivo antibacterial activity in mice against Proteus mirabilis ATCC 4671, Klebsiella pneumoniae AD, and Escherichia coli US311 when administered by a single subcutaneous dose to groups of Carworth Farms CF-1 mice, weight about 20 gm., infected intraperitoneally with a lethal dose of these bacteria in 10^-^1.6 , 10^-^4 and 10^-^3 trypticase soy broth TSP dilutions, respectively, of a 5 hour TSP blood culture.
(§2) Table VII, below, illustrates the in vivo antibacterial activity of BM123α, BM123β, and BM123γ against these three bacteria.

[7] = test system: Proteus mirabilis ATCC 4671; assay: as above; format: in vivo, mice (Carworth Farms CF-1)
Method: as §1, §2

[8] = test system: Klebsiella pneumoniae AD; assay: as above; format: in vivo, mice (Carworth Farms CF-1)
Method: as §1, §2

[9] = test system: Bacillus globigii; assay: in vitro MIC, standard agar dilution procedure; format: cell-based
[10] = test system: Bacillus subtilis No. 18 Stansly R-76; assay: in vitro MIC, standard agar dilution procedure; format: cell-based
[11] = test system: Proteus morganii ATCC 8019; assay: in vitro MIC, standard agar dilution procedure; format: cell-based
[12] = test system: Staphylococcus aureus 4050B122-3; assay: in vitro MIC, standard agar dilution procedure; format: cell-based
[13] = test system: Pseudomonas aeruginosa 1A7; assay: in vitro MIC, standard agar dilution procedure; format: cell-based
[14] = test system: Salmonella typhosa ATCC 6539; assay: in vitro MIC, standard agar dilution procedure; format: cell-based; conditions: Salmonella typhosa ATCC 6539; agar dilution
[15] = test system: Proteus vulgaris ATCC 9484; assay: in vitro MIC, standard agar dilution procedure; format: cell-based
[16] = test system: Klebsiella pneumoniae AD; assay: in vitro MIC, standard agar dilution procedure; format: cell-based
[17] = test system: Escherichia coli No. 29; assay: in vitro MIC, standard agar dilution procedure; format: cell-based
[18] = test system: Corynebacterium xerosis NRRL B-1397; assay: in vitro MIC, standard agar dilution procedure; format: cell-based
[19] = test system: Enterobacter aerogenes 75; assay: in vitro MIC, standard agar dilution procedure; format: cell-based
[20] = test system: Bacillus subtilis No. 17 Stansly R-78; assay: in vitro MIC, standard agar dilution procedure; format: cell-based
[21] = test system: Salmonella gallinarum 605; assay: in vitro MIC, standard agar dilution procedure; format: cell-based
[22] = test system: Mycobacterium smegmatis ATCC 607; assay: in vitro MIC, standard agar dilution procedure; format: cell-based
[23] = test system: Escherichia coli U-311; assay: in vitro MIC, standard agar dilution procedure; format: cell-based
[24] = test system: Staphylococcus aureus Rose ATCC 14154; assay: in vitro MIC, standard agar dilution procedure; format: cell-based
[25] = test system: Streptococcus faecalis GK; assay: in vitro MIC, standard agar dilution procedure; format: cell-based
[26] = test system: Sarcina lutea ATCC 9341; assay: in vitro MIC, standard agar dilution procedure; format: cell-based
[27] = test system: Bacillus cereus ATCC 9634; assay: in vitro MIC, standard agar dilution procedure; format: cell-based
[28] = single subcutaneous dose 32 mg./kg.
[29] = single subcutaneous dose 128 mg./kg.
[30] = single subcutaneous dose 512 mg./kg.

## N=C(N)NCCCC(N)C(=O)NC1C(OC2C(CO)OC(OC3C(O)C(NC(=O)C4CCC(=N)N4)C(O)C(O)C3OC(N)=O)C(O)C2O)OC(CO)C(O)C1O (stereo not drawn) [BM123α]
[1]
  in vivo activity against a variety of organisms: active in vivo
[2]
  Minimal Inhibitory Concentration: 50 µg/mL
[3]
  Minimal Inhibitory Concentration: 50 µg/mL
[4]
  Minimal Inhibitory Concentration: 200 µg/mL
[5]
  Minimal Inhibitory Concentration: 20 µg/mL
[6]; [28]
  Alive/Total Mice Tested, 7 Days After Infection: 1/5
[6]; [29]
  Alive/Total Mice Tested, 7 Days After Infection: 5/5
[6]; [30]
  Alive/Total Mice Tested, 7 Days After Infection: 5/5
[7]; single subcutaneous dose 8 mg./kg.
  Alive/Total Mice Tested, 7 Days After Infection: 0/5
[7]; [28]
  Alive/Total Mice Tested, 7 Days After Infection: 2/5
[7]; [29]
  Alive/Total Mice Tested, 7 Days After Infection: 3/5
[7]; [30]
  Alive/Total Mice Tested, 7 Days After Infection: 5/5
[8]; [28]
  Alive/Total Mice Tested, 7 Days After Infection: 0/5
[8]; [29]
  Alive/Total Mice Tested, 7 Days After Infection: 0/5
[8]; [30]
  Alive/Total Mice Tested, 7 Days After Infection: 4/5
[9]
  Minimal Inhibitory Concentration: 10 µg/mL
[10]
  Minimal Inhibitory Concentration: 20 µg/mL
[11]
  Minimal Inhibitory Concentration: 5 µg/mL
[12]
  Minimal Inhibitory Concentration: 100 µg/mL
[13]
  Minimal Inhibitory Concentration: > 200 µg/mL
[14]
  Minimal Inhibitory Concentration: 5 µg/mL
[15]
  Minimal Inhibitory Concentration: 5 µg/mL
[16]
  Minimal Inhibitory Concentration: 5 µg/mL
[17]
  Minimal Inhibitory Concentration: 5 µg/mL
[18]
  Minimal Inhibitory Concentration: 10 µg/mL
[19]
  Minimal Inhibitory Concentration: 10 µg/mL
[20]
  Minimal Inhibitory Concentration: 10 µg/mL
[21]
  Minimal Inhibitory Concentration: 5 µg/mL
[22]
  Minimal Inhibitory Concentration: 5 µg/mL
[23]
  Minimal Inhibitory Concentration: 5 µg/mL
[24]
  Minimal Inhibitory Concentration: 100 µg/mL
[25]
  Minimal Inhibitory Concentration: > 200 µg/mL
[26]
  Minimal Inhibitory Concentration: 50 µg/mL
[27]
  Minimal Inhibitory Concentration: 100 µg/mL

## CC1OC(Oc2ccc(/C=C/C(=O)NCCCNCCCCN)cc2)C(NC(=N)N)C(O)C1NC(=O)NC1OCC(OC2OCC(O)C(N)C2NC(N)=O)C(O)C1NC(N)=O (stereo not drawn) [BM123β1]
[2]
  Minimal Inhibitory Concentration: 0.5 µg/mL
[3]
  Minimal Inhibitory Concentration: 2.5 µg/mL
[4]
  Minimal Inhibitory Concentration: 25 µg/mL
[5]
  Minimal Inhibitory Concentration: 0.5 µg/mL
[9]
  Minimal Inhibitory Concentration: 0.25 µg/mL
[10]
  Minimal Inhibitory Concentration: 2.5 µg/mL
[11]
  Minimal Inhibitory Concentration: 0.5 µg/mL
[12]
  Minimal Inhibitory Concentration: 2.5 µg/mL
[13]
  Minimal Inhibitory Concentration: 100 µg/mL
[14]
  Minimal Inhibitory Concentration: 0.25 µg/mL
[15]
  Minimal Inhibitory Concentration: 0.25 µg/mL
[16]
  Minimal Inhibitory Concentration: 0.25 µg/mL
[17]
  Minimal Inhibitory Concentration: 0.25 µg/mL
[18]
  Minimal Inhibitory Concentration: 2.5 µg/mL
[19]
  Minimal Inhibitory Concentration: 0.5 µg/mL
[20]
  Minimal Inhibitory Concentration: 0.25 µg/mL
[21]
  Minimal Inhibitory Concentration: 0.5 µg/mL
[22]
  Minimal Inhibitory Concentration: 2.5 µg/mL
[23]
  Minimal Inhibitory Concentration: 0.25 µg/mL
[24]
  Minimal Inhibitory Concentration: 1 µg/mL
[25]
  Minimal Inhibitory Concentration: > 100 µg/mL
[26]
  Minimal Inhibitory Concentration: 2.5 µg/mL
[27]
  Minimal Inhibitory Concentration: 2.5 µg/mL

## Gentamicin sulfate [reference compound]
[2]
  Minimal Inhibitory Concentration: 0.25 µg/mL
[3]
  Minimal Inhibitory Concentration: 0.25 µg/mL
[4]
  Minimal Inhibitory Concentration: 2.5 µg/mL
[5]
  Minimal Inhibitory Concentration: 0.05 µg/mL
[9]
  Minimal Inhibitory Concentration: 0.025 µg/mL
[10]
  Minimal Inhibitory Concentration: 0.1 µg/mL
[11]
  Minimal Inhibitory Concentration: 0.1 µg/mL
[12]
  Minimal Inhibitory Concentration: 0.25 µg/mL
[13]
  Minimal Inhibitory Concentration: 5 µg/mL
[14]
  Minimal Inhibitory Concentration: 0.1 µg/mL
[15]
  Minimal Inhibitory Concentration: 0.1 µg/mL
[16]
  Minimal Inhibitory Concentration: 0.05 µg/mL
[17]
  Minimal Inhibitory Concentration: 0.05 µg/mL
[18]
  Minimal Inhibitory Concentration: 0.025 µg/mL
[19]
  Minimal Inhibitory Concentration: 0.1 µg/mL
[20]
  Minimal Inhibitory Concentration: 0.025 µg/mL
[21]
  Minimal Inhibitory Concentration: 0.05 µg/mL
[22]
  Minimal Inhibitory Concentration: 0.1 µg/mL
[23]
  Minimal Inhibitory Concentration: 0.05 µg/mL
[24]
  Minimal Inhibitory Concentration: 0.1 µg/mL
[25]
  Minimal Inhibitory Concentration: 2.5 µg/mL
[26]
  Minimal Inhibitory Concentration: 0.25 µg/mL
[27]
  Minimal Inhibitory Concentration: 0.25 µg/mL
